Values quoted from earlier work as cited in US20240262808A1, “XANTHINE OXIDASE INHIBITOR” (JIANGSU ATOM BIOSCIENCE AND PHARMACEUTICAL CO., LTD., priority 2021, published 2024).

Key:
subjects = settings: allopurinol used at maximum doses; cited from earlier work
patients with gout = settings: patients with gout, per treatment group; cited from earlier work

Oc1ncnc2[nH]ncc12 [allopurinol, Allopurinol]
Subjects reaching the treatment endpoint (subjects): less than 50%
Sudden cardiac death, share of group (patients with gout): 1.8%
